Source: US12473583B2, “Use of guar gum, fluorescence-enhanced gold nanocluster, method for detecting alpha-glucosidase, and method for screening alpha-glucosidase inhibitor” (priority 2022, dated 2025)

Molecular target: α-glucosidase (α-Glu)
Assay: Screening of α-Glu inhibitors by fluorescence detection with guar gum-gold nanocluster-Fe3+ mixed dispersion (AAG substrate)
Assay type: biochemical
Details: read from calibration curve of inhibitory efficiency vs concentration; third incubation 37° C. for 40 min, PBS pH=7.0, AAG substrate; fluorescence at 610 nm; read-out: IC50 (concentration of the inhibitor required to inhibit 50% α-Glu activity)
Excerpt: The present disclosure further provides a method for screening an α-Glu inhibitor, including the following steps: • providing a fluorescence-enhanced gold nanocluster-Fe^3+ mixed dispersion, where a fluorescence-enhanced gold nanocluster in the fluorescence-enhanced gold nanocluster-Fe^3+ mixed dispersion is the fluorescence-enhanced gold nanocluster in the above technical solution; • mixing an α-Glu inhibitor solution to be tested, an α-Glu solution, an AAG solution, and a PBS, and conducting third incubation to obtain a third incubation solution; • mixing the third incubation solution with the fluorescence-enhanced gold nanocluster-Fe^3+ mixed dispersion, and conducting fourth incubation to obtain a fourth incubation solution; and • subjecting the fourth incubation solution to fluorescence detection, and plotting a calibration curve of the α-Glu inhibitor to be tested according to a fluorescence emission intensity obtained by the fluorescence detection; according to the calibration curve of the α-Glu inhibitor to be tested, obtaining an IC50 of the α-Glu inhibitor to be tested to screen the α-Glu inhibitor. […]
In the present disclosure, the third incubation solution is mixed with the fluorescence-enhanced gold nanocluster-Fe^3+ mixed dispersion, and the fourth incubation is conducted to obtain the fourth incubation solution. […]

## COc1ccc([C@@H]2CC(=O)c3c(O)cc(O[C@@H]4O[C@H](CO[C@@H]5O[C@@H](C)[C@H](O)[C@@H](O)[C@H]5O)[C@@H](O)[C@H](O)[C@H]4O)cc3O2)cc1O [hesperidin]
  IC50: 101 µM
